Assay results reported in paper PMC5733478, “A Non-imaging High Throughput Approach to Chemical Library Screening at the Unmodified Adenosine-A3 Receptor in Living Cells” (Frontiers in Pharmacology, 2017).
Structures can show the parent of a compound that is named as a salt.

molecular target: T1, human A3AR (Homo sapiens, UniProt P0DMS8); test: LOPAC library primary screen: single concentration (10 μM) inhibition of 25 nM CA200645 binding, PHERAstar FS; settings: not given
T1 construct: expressed in transfected cells
T1 sequence (P0DMS8 1-318): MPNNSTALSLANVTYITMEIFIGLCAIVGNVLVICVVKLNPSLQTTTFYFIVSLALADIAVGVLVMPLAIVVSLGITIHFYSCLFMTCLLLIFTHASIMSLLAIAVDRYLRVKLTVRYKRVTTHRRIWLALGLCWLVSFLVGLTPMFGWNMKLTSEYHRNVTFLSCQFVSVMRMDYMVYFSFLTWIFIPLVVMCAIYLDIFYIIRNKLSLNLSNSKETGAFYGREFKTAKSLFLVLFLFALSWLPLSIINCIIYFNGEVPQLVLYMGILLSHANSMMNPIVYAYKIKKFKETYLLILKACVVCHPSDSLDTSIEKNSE

`O=C1c2c(O)cc(O)cc2O[C@H](c2ccc(O)c(O)c2)[C@H]1O` (racemic) [(±)-Taxifolin] and `O=C(C1CCCCC1)N1CC(=O)N2CCc3ccccc3C2C1` (stereo not shown) [Praziquantel] are within error of each other in “% 25 nM CA200645 binding” value: 111.1 ± 7.5% for the first, 100.5 ± 15.0% for the second.

`NCCc1c[nH]cn1` [Histamine dihydrochloride] and `CC(C)[C@H]1c2ccc(F)cc2CC[C@@]1(CCN(C)CCCc1nc2ccccc2[nH]1)OC(=O)C1CC1` [NNC 55-0396] are within error of each other in “% 25 nM CA200645 binding” value: 102.0 ± 10.2% for the first, 109.8 ± 31.5% for the second.

`N=C(N)SCCc1cnc[nH]1` [Imetit dihydrobromide] and `CC(C)NCC(O)COc1cccc2[nH]ccc12` (stereo not drawn) [S(-)-Pindolol] are within error of each other in “% 25 nM CA200645 binding” value: 99.9 ± 2.2% for the first, 98.0 ± 8.4% for the second.

`CC(C)[N+]1(C)[C@@H]2CC[C@H]1C[C@@H](OC(=O)C(CO)c1ccccc1)C2` (stereo partly shown) [Ipratropium bromide] and `CCN(CC)CCNC(=O)c1cc(S(C)(=O)=O)ccc1OC` [Tiapride hydrochloride] are within error of each other in “% 25 nM CA200645 binding” value: 106.7 ± 26.2% for the first, 98.9 ± 15.2% for the second.

`Cl.c1ccc2sc(C3(N4CCCCC4)CCCCC3)cc2c1` [BTCP hydrochloride] and `CCc1ccccc1OC[C@@H](O)CN[C@H]1CCCc2ccccc21.O=C(O)C(=O)O` [SR 59230A oxalate] are within error of each other in “% 25 nM CA200645 binding” value: 94.3 ± 14.0% for the first, 94.8 ± 26.7% for the second.

`C[N+](C)(C)CC(=O)O` [Betaine hydrochloride] and `COc1ccc2c(c[n+](C)c3c4cc5c(cc4ccc23)OCO5)c1OC` [Chelerythrine chloride] are within error of each other in “% 25 nM CA200645 binding” value: 78.7 ± 15.6% for the first, 73.9 ± 3.7% for the second.

Going from `C#CCN[C@H](C)Cc1ccccc1.Cl` [R-(-)-Desmethyldeprenyl hydrochloride] to `C#C[C@]1(O)CC[C@H]2[C@@H]3CCC4=Cc5nc6nc7ccccc7n6cc5C[C@]4(C)[C@H]3CC[C@@]21C` [WIN 62,577], the “% 25 nM CA200645 binding” value falls from 101.0 ± 11.7% to 67.3 ± 5.6%.

`C[N+](C)(C)CCOP(=O)([O-])OP(=O)([O-])OC[C@H]1O[C@@H](n2ccc(N)nc2=O)[C@H](O)[C@@H]1O.[Na+]` and `COc1cc(CC(=O)O)ccc1O` [4-Hydroxy-3-methoxyphenylacetic acid] are within error of each other in “% 25 nM CA200645 binding” value: 102.5 ± 15.7% for the first, 94.9 ± 9.6% for the second.

`CCCCNC(=O)NS(=O)(=O)c1ccc(C)cc1` [Tolbutamide] and `CCOC(=O)[N-]c1cn(N2CCOCC2)n[o+]1` [Molsidomine] are within error of each other in “% 25 nM CA200645 binding” value: 101.8 ± 7.4% for the first, 91.8 ± 17.4% for the second.

`CC[C@@H]1C(=O)OC[C@@H]1Cc1cncn1C` [Pilocarpine nitrate] and `N[C@@H](CCCC(=O)O)C(=O)O` [L-2-aminoadipic acid] are within error of each other in “% 25 nM CA200645 binding” value: 92.9 ± 2.4% for the first, 101.5 ± 9.7% for the second.

`CN(C)CCC(c1ccccc1)c1ccccn1` (stereo not shown) [Pheniramine maleate] and `N[C@@H](C(=O)N[C@@H]1C(=O)N2C(C(=O)O)=C(Cl)CS[C@H]12)c1ccccc1` [Cefaclor] are within error of each other in “% 25 nM CA200645 binding” value: 91.5 ± 14.9% for the first, 79.3 ± 20.7% for the second.

First: Nc1c(S(=O)(=O)O)cc(Nc2ccc(Nc3nc(Cl)nc(Nc4cccc(S(=O)(=O)O)c4)n3)c(S(=O)(=O)O)c2)c2c1C(=O)c1ccccc1C2=O [Reactive Blue 2]
Second: CCCN1CCC[C@H](c2cccc(O)c2)C1.Cl [R(+)-3PPP hydrochloride]
The “% 25 nM CA200645 binding” value of the first is lower: 24.5 ± 2.7% for the first, 88.4 ± 12.1% for the second.

`Cc1nn(-c2ccccc2)c(C)c1/C=N/N1CCN(Cc2ccccc2)CC1` [SANT-1] and `CCN(CC)CCCCCCCCOC(=O)c1cc(OC)c(OC)c(OC)c1.Cl` [TMB-8 hydrochloride] are within error of each other in “% 25 nM CA200645 binding” value: 82.1 ± 15.9% for the first, 95.0 ± 0.4% for the second.

`CN(C)CCC=C1c2ccccc2COc2ccccc21` [Doxepin hydrochloride] and 17alpha-hydroxyprogesterone are within error of each other in “% 25 nM CA200645 binding” value: 110.0 ± 13.2% for the first, 104.8 ± 10.6% for the second.

`C#C[C@]1(O)CC[C@H]2[C@@H]3CCC4=Cc5oncc5C[C@]4(C)[C@H]3CC[C@@]21C` [Danazol] and `OC[C@H]1NC[C@H](O)[C@@H](O)[C@@H]1O` [1-Deoxynojirimycin hydrochloride] are within error of each other in “% 25 nM CA200645 binding” value: 86.4 ± 9.1% for the first, 98.5 ± 11.6% for the second.

`CN(C)[C@@H]1C(O)=C(C(N)=O)C(=O)[C@@]2(O)C(O)=C3C(=O)c4c(O)ccc(Cl)c4[C@@H](O)[C@H]3C[C@@H]12` [Demeclocycline hydrochloride] and `FC(F)(F)c1ccccc1-n1ccnc1` [1-[2-(Trifluoromethyl)phenyl]imidazole] are within error of each other in “% 25 nM CA200645 binding” value: 98.1 ± 10.5% for the first, 101.2 ± 9.4% for the second.

`Cl.NCC(O)c1cc(O)c(O)cc1F` (stereo not shown) [6-Fluoronorepinephrine hydrochloride] and `CC(C)c1cccc(C(C)C)c1N1C(=O)c2ccc(O)cc2C1=O` [5HPP-33] are within error of each other in “% 25 nM CA200645 binding” value: 77.6 ± 28.4% for the first, 91.1 ± 9.2% for the second.

`NC(=O)COc1c(F)cc(SCCNS(=O)(=O)c2ccccc2)cc1F` and `C#CCN(C)Cc1ccccc1` [Pargyline hydrochloride] are within error of each other in “% 25 nM CA200645 binding” value: 109.8 ± 13.1% for the first, 102.9 ± 12.8% for the second.

`Cl.O=C(Cc1ccc(Cl)c(Cl)c1)N1CCCCC1CN1CCCC1` (stereo not shown) [BRL 52537 hydrochloride] and `NS(=O)(=O)C#Cc1ccccc1` [Pifithrin-mu] are within error of each other in “% 25 nM CA200645 binding” value: 112.4 ± 4.2% for the first, 92.3 ± 34.4% for the second.

`NCCc1c[nH]c2ccc(O)cc12` [Serotonin hydrochloride] and `Fc1ccc(C(c2ccc(F)cc2)N2CCN(C/C=C/c3ccccc3)CC2)cc1` [Flunarizine dihydrochloride] are within error of each other in “% 25 nM CA200645 binding” value: 95.8 ± 9.3% for the first, 102.1 ± 8.8% for the second.

`COc1ccc2c(c1OC)C(=O)OC2C1c2cc3c(cc2CCN1C)OCO3` (single isomer, unassigned; (+)) [(+)-Hydrastine] and `CN[C@@H]1C[C@@H](c2ccc(Cl)c(Cl)c2)c2ccccc21` [Indatraline hydrochloride] are within error of each other in “% 25 nM CA200645 binding” value: 95.9 ± 10.1% for the first, 103.0 ± 8.6% for the second.

`CC1(C(=O)O)C2CCC(O2)C1(C)C(=O)O` (stereo not shown) [Cantharidic Acid] and `O=C(O)C1CCCNC1` (racemic) [(±)-Nipecotic acid] are within error of each other in “% 25 nM CA200645 binding” value: 97.5 ± 13.0% for the first, 101.9 ± 5.9% for the second.

Going from CCT007093 to `CC(C)(C)[C@]1(O)CCN2C[C@H]3c4ccccc4CCc4cccc(c43)[C@@H]2C1` [(+)-Butaclamol hydrochloride], the “% 25 nM CA200645 binding” value rises from 68.4 ± 3.4% to 98.6 ± 1.9%.

`CCc1cccc2c3c([nH]c12)C(CC)(CC(=O)O)OCC3` (stereo not shown) [Etodolac] and `Nc1ccc2c3c(cccc13)C(=O)NC2=O` [4-Amino-1,8-naphthalimide] are within error of each other in “% 25 nM CA200645 binding” value: 97.1 ± 13.7% for the first, 95.4 ± 12.1% for the second.

Going from `CNCCC(Oc1ccccc1OC)c1ccccc1` (stereo not shown) [Nisoxetine hydrochloride] to `CNc1ccc2oc(C[C@H]3O[C@@]4(CC[C@H]3C)O[C@H]([C@H](C)C(=O)c3ccc[nH]3)[C@H](C)C[C@H]4C)nc2c1C(=O)O` [Calcimycin], the “% 25 nM CA200645 binding” value falls from 97.3 ± 6.5% to 38.9 ± 3.3%.

`CN(C)CCCN1c2ccccc2Sc2ccc(Cl)cc21` [Chlorpromazine hydrochloride] and `C[N+]1(C)CCN(c2ccccc2)CC1.[I-]` are within error of each other in “% 25 nM CA200645 binding” value: 92.2 ± 10.3% for the first, 102.6 ± 13.3% for the second.

`CC(=O)[C@H]1CC[C@H]2[C@@H]3CC[C@H]4C[C@H](O)CC[C@]4(C)[C@H]3CC[C@]12C` [5alpha-Pregnan-3alpha-ol-20-one] and `O=C(CCc1ccc(O)cc1)c1c(O)cc(O)cc1O` [Phloretin] are within error of each other in “% 25 nM CA200645 binding” value: 85.2 ± 19.4% for the first, 67.7 ± 15.2% for the second.

Compared with `CC(=O)NBr` [N-Bromoacetamide], `OC[C@H]1O[C@@H](n2cnc3c(NC4CCCC4)ncnc32)[C@H](O)[C@@H]1O` [N6-Cyclopentyladenosine] is lower in “% 25 nM CA200645 binding” value: 97.9 ± 5.0% for the first, 69.6 ± 6.1% for the second.

Compared with `NCCCCNCCCN` [Spermidine trihydrochloride], `Nc1nc(OCC2CCCCC2)c2[nH]cnc2n1` [NU2058] is lower in “% 25 nM CA200645 binding” value: 102.2 ± 19.0% for the first, 53.9 ± 7.1% for the second.

`COc1ccc(/C=C2\COc3ccc(C)cc3C2=O)cc1O` [IMS2186] and `CC(O)(CS(=O)(=O)c1ccc(F)cc1)C(=O)Nc1ccc(C#N)c(C(F)(F)F)c1` (stereo not shown) [Bicalutamide (CDX)] are within error of each other in “% 25 nM CA200645 binding” value: 95.7 ± 10.2% for the first, 96.9 ± 5.3% for the second.

`CC(C)NCC(O)COc1cccc2ccccc12.Cl` (racemic) [(±)-Propranolol hydrochloride] and `COc1ccc(Cl)cc1C(=O)NCCc1ccc(S(=O)(=O)NC(=O)NC2CCCCC2)cc1` [Glybenclamide] are within error of each other in “% 25 nM CA200645 binding” value: 106.0 ± 10.5% for the first, 92.8 ± 16.7% for the second.

`CO/N=C(\C(=O)N[C@@H]1C(=O)N2C(C(=O)O)=C(CSc3nc(=O)c(=O)[nH]n3C)CS[C@H]12)c1csc(N)n1` [Ceftriaxone sodium] and `CC(/C=C/c1cccc(Oc2ccc(F)cc2)c1)N(O)C(N)=O` (stereo not shown) [BWB70C] are within error of each other in “% 25 nM CA200645 binding” value: 100.5 ± 11.9% for the first, 92.4 ± 13.0% for the second.

Going from `C[C@]12CC[C@@H]3c4ccc(O)cc4CC[C@H]3[C@@H]1CC[C@@H]2O` [beta-Estradiol] to `NC(=O)CN1CCCC1=O` [Piracetam], the “% 25 nM CA200645 binding” value rises from 87.8 ± 13.4% to 110.0 ± 4.3%.

same assay, conditions: % of control wells (1% DMSO and 25 nM CA200645); compounds at 10 µM; […]; mean ± SD, three experiments in duplicate

For `CN1CCN(CCCN2c3ccccc3Sc3ccc(C(F)(F)F)cc32)CC1` [Trifluoperazine dihydrochloride], the “% 25 nM CA200645 binding” value was 97.1 ± 25.1%.

same assay, conditions: % of control wells (1% DMSO and 25 nM CA200645); compounds at 10 µM; whole live cells expressing the A3AR; mean ± SD, three experiments in duplicate

`O=C(O)C1=CCNCC1` [Isoguvacine hydrochloride] and `C=C/C(C)=C/[C@@]1(C)SC(=O)C(C)=C1O` [Thiolactomycin] are within error of each other in “% 25 nM CA200645 binding” value: 87.4 ± 16.5% for the first, 98.5 ± 7.2% for the second.

same assay, conditions: compounds tested at 10 µM; % of control wells (1% DMSO and 25 nM CA200645); whole live cells expressing the A3AR; mean ± SD, three experiments in duplicate

With `c1ccc2c(c1)OCC(C1=NCCN1)O2` (stereo not shown) [Idazoxan hydrochloride] the “% 25 nM CA200645 binding” value was 112.7 ± 7.0%.
